From US10793601B2, “Therapeutic spalt-like transcription factor 4 (SALL4) peptide” (National University of Singapore, priority 2016, dated 2020)
Several values for one entry are separate records, joined by “and”; a condition that tells them apart may be missing. Equal values may be shown once. Ends that are not written are not given here.

What was measured:
[1] = system: SNU387 cells; assay: Cell viability assay in SNU387 cells (no SALL4 expression); format: cell-based; conditions: cell viability after 72 hr
Experimental: FIGS. 6A-6B. Therapeutic window of PEN-FFW in HCC cell lines. FIG. 6A: Peptides were added to HCC cell line SNU398 with high expression of SALL4. FIG. 6B: HCC cell line SNU387 with no expression of SALL4, and cell viability was measured after 72 hr of incubation.
The efficacies of the FFW, WT and MUT peptides were compared at the cellular level and in mice. A penetratin sequence (PEN) was attached to the N-terminus of each peptide to facilitate cell penetration in vitro. […] The therapeutic window of PEN-FFW in SALL4 expressing HCC cells was accessed in SNU387 cells, a HCC line with undetectable level of SALL4, as well as SNU398. The MUT and WT SALL4 peptides were also included in this assay for comparison (FIGS. 6 A & B).

[2] = system: SNU398 tumor xenografts; assay: SNU398 xenograft in NSG mice; format: in vivo, NOD/SCID/gamma mice
Experimental: FIGS. 7A-7E. […] FIG. 7A: 7.2×10^5 SNU398 cells were inoculated subcutaneously into the right flank of NOD/SCID/gamma mice (NSG mice). Tumors were allowed to grow for one week before peptide treatments were administered every alternate day for a total of five injections. FIG. 7B: Tumor growth was documented by plotting tumor volume against time. […] FIG. 7C: Relative size of tumors resected on day 20. FIG. 7D: tumor weight was determined (n=5). […] FIG. 7E: Total RNA was isolated from the resected tumors and expression of PTEN was measured using real-time PCR.
FIGS. 9A-9E. […] FIG. 9A: PEN-FFW treated SNU398 tumor xenografts were compared to that of Sorafenib treated xenografts. FIG. 9B: PEN-FFW treated PLC8024 tumor xenografts were compared to that of Sorafenib treated xenografts. Mice body weight was measured to access toxicity of various peptides. FIG. 9C: Body weight of mice at day 17. FIG. 9D: Differences of body weight compared to day 0 (As indicated by the arrow in far left of FIG. 7A). FIG. 9E: Body weight of mice at day 19th in the experiment shown in FIG. 9A comparing effect of Sorafenib and PEN-FFW. Data represent mean±s.d. (n=5).
All mice were treated in accordance with Responsible Care and Use of Laboratory animals. In the SNU398 in vivo studies, 6-8-week-old female C.B-17 severe combined immunodeficient (SCID) mice (NSG) were inoculated s.c. into the flank with 7.2×10^5 cells in 2:1 PBS/Matrigel (BD Biosciences). The tumours were then allowed to develop to the size of 50-70 mm3 before intraperitoneal injections of the different peptides were given at two to three-day intervals for a total of 5 injections. Mice were randomly grouped in sets of six and treated with PEN (penetratin control), PEN-MUT (mutant control), PEN-WT (wild type control) and PEN-FFW (peptide 47). Tumor volumes were measured every 5 days and tumor weight were measured at the end point. For PEN control, 22.5 mg/kg were given; for PEN-MUT, PEN-WT and PEN-FFW, 35.6 mg/kg, 37 mg/kg and 36 mg/kg were given respectively to the mice according to their body weight Tumor measurements were taken twice weekly using Vernier calipers. Tumor volume was estimated using the following formula: V=0.5×width×width×length. When tumors approached ˜50 mm3, mice were randomized into groups of 5 animals each and received peptides treatment three times weekly by i.p. injection. All statistical analysis was done using a one-way ANOVA and Student's T-test.

[3] = system: PTEN; assay: PTEN mRNA in resected SNU398 tumors by real-time PCR; format: in vivo, NOD/SCID/gamma mice; conditions: harvested SNU398 tumors
Experimental: FIGS. 7A-7E. Anti-tumor activity of the candidate therapeutic peptide FFW. FIG. 7A: 7.2×10^5 SNU398 cells were inoculated subcutaneously into the right flank of NOD/SCID/gamma mice (NSG mice). Tumors were allowed to grow for one week before peptide treatments were administered every alternate day for a total of five injections. FIG. 7B: Tumor growth was documented by plotting tumor volume against time. […] FIG. 7C: Relative size of tumors resected on day 20. FIG. 7D: tumor weight was determined (n=5). PEN-FFW treated mice had the smallest tumors (μ=88.34 mg) compared to PEN (μ=1550.78 mg), PEN-MUT (μ=1273.46 mg) and PEN-WT (μ=563.46 mg). FIG. 7E: Total RNA was isolated from the resected tumors and expression of PTEN was measured using real-time PCR.
Tumors resected from mice were homogenized in Trizol. Total RNA was extracted and treated with RNase-free DNase (Qiagen). Reverse transcription was carried out using Superscript III Reverse Transcriptase. Quantitative PCR was performed using GoTaq qPCR Master Mix (Promega). Amplification was done with a Corbett Rotor Gene 6000 (Qiagen). Each sample was assayed in triplicate.

[4] = system: PLC8024 tumor xenografts; assay: PLC8024 xenograft (Sorafenib-resistant HCC); format: in vivo, mice
Experimental: FIGS. 9A-9E. Clinical significance of PEN-FFW compared to Sorafenib. FIG. 9A: PEN-FFW treated SNU398 tumor xenografts were compared to that of Sorafenib treated xenografts. FIG. 9B: PEN-FFW treated PLC8024 tumor xenografts were compared to that of Sorafenib treated xenografts. Mice body weight was measured to access toxicity of various peptides. FIG. 9C: Body weight of mice at day 17. FIG. 9D: Differences of body weight compared to day 0 (As indicated by the arrow in far left of FIG. 7A). FIG. 9E: Body weight of mice at day 19th in the experiment shown in FIG. 9A comparing effect of Sorafenib and PEN-FFW. Data represent mean±s.d. (n=5).
Clinical significance of PEN-FFW was studied in vivo by benchmarking against current therapy using Sorafenib. PEN-FFW treated SNU398 tumor xenografts were compared to that of Sorafenib treated xenografts (FIG. 9A). […] Potential therapeutic effect of PEN-FFW in HCC patients that are refractory to Sorafenib treatment was studied also studied in vivo. using a HCC cell line, PLC8024 which is SALL4 positive, CD133+ and is both chemo- and radio-resistant (Li et al., BMC Cancer 2016, 16, 15; Ma et al., Oncogene 2008, 27: 1749-1758), for the xenograft study.

[5] = mouse, in vivo
Experimental: (§1) Mice were exposed to intraperitoneal (IP) administration of PEN-FFW (30 mg/kg) or vehicle (10% DMSO) every alternate day over the course of 17 days to a cumulative dose of 270 mg/kg.
(§2) Toxicity of PEN-FFW was studied in vivo in C57BL/6 mice (n=4). Theses mice were exposed to intraperitoneal (IP) administration of PEN-FFW (30 mg/kg) or vehicle (10% DMSO) every alternate day over the course of 17 days to a cumulative dose of 270 mg/kg. […] After a 7-day washout period, complete blood counts and liver function assay tests were performed, and organs were harvested for histology. Potential liver injury caused by the peptide treatment was studied by testing serum AST (Aspartate Aminotransferase) and ALT (Alanine Aminotransferase) levels.
(§3) 6-8-week old female C57BL mice were given PEN-FFW (30 mg/kg) (n=3) or DMSO control (n=2) every alternate day, for a total of 17 day, to a cumulative dose of 270 mg/kg. The mice were observed and weighted throughout the period. A 7 days wash out period were given before the mice were sacrificed with their blood and organs collected. Blood count were perform immediately with Celltact MEK6450 (Nihon Kohden, Japan), and serum were subjected for ALT and AST assay on the same day. ALT and AST were performed according to the manufacturer's protocol (Sigma-Aldrich, Merck, Germany). The organs were fixed with neutral buffered Formalin and embedded in paraffin. […]

[6] = Toxicity study, repeated IP administration; conditions: 30 mg/kg IP every alternate day, 17 days, cumulative 270 mg/kg
Experimental: as §1, §2, §3

Sequence: RQIKIWFQNRRMKWKKRRKFAKFQWI [PEN-FFW]
- specificity SNU398 (SALL4 high) versus SNU387 (no SALL4) [1]: specificity of PEN-FFW in targeting SALL4-high HCC cells (SNU398)
- anti-tumor activity benchmarked against Sorafenib ([2]; SNU398 xenograft, compared to vehicle treated groups): stronger anti-tumor activity than Sorafenib
- effect on tumor growth ([2]; SNU398 xenograft, tumor volume against time): significant reduced growth rate
- tumor weight ([2]; mean, tumors resected on day 20, five i.p. injections): 88.34 mg and 88 mg
- increase in PTEN expression in tumors compared to PEN control mice [3]: 9 fold
- tumor inhibitory effect [4]: minimal tumor inhibitory effect
- tissue damage by microscopic examination of major organs [5]: No tissue damage was observed
- signs of toxicity (weight loss, lethargy, loss of mobility) [6]: did not exhibit notable signs of toxicity
